According to US7459481B2, “Stimulation of CPT-1 as a means to reduce weight” (The Johns Hopkins University School of Medicine Licensing …, priority 2002, dated 2008):

What was measured:
FAS = FAS (Homo sapiens, UniProt P49327); experiment: FAS activity, malonyl-CoA dependent oxidation of NADPH at OD340; format: biochemical
Experimental: (§1) FAS activity was measured by monitoring the malonyl-CoA dependent oxidation of NADPH spectrophotometrically at OD340 in 96-well plates, as described in International Patent Publication WO 2004/005277. The IC50 for the compounds against FAS was determined by plotting the change in OD340 against time for each inhibitor concentration tested and determining the rate of change by linear regression. The concentration of a particular compound yielding 50% inhibition of the rate for FAS in the absence of the compound is the IC50. Stimulation of CPT-1 activity was measured as described in Example 2, except the cells were preincubated with the compound for 2 hours at the concentrations indicated in the table. Stimulation of Fatty acid oxidation was determined as described in Example 1 for cells preincubated with the compounds at the concentrations indicated in the table.

MCF-7 cells = conditions: cited from earlier work
CPT-1 = molecular target: T1, CPT-1 (Homo sapiens, UniProt P50416); experiment: CPT-1 activity assay in MCF-7 cells; format: cell-based
T1 construct: endogenous in cells; host or cells: MCF-7 human breast cancer cells
T1 sequence (P50416 1-773): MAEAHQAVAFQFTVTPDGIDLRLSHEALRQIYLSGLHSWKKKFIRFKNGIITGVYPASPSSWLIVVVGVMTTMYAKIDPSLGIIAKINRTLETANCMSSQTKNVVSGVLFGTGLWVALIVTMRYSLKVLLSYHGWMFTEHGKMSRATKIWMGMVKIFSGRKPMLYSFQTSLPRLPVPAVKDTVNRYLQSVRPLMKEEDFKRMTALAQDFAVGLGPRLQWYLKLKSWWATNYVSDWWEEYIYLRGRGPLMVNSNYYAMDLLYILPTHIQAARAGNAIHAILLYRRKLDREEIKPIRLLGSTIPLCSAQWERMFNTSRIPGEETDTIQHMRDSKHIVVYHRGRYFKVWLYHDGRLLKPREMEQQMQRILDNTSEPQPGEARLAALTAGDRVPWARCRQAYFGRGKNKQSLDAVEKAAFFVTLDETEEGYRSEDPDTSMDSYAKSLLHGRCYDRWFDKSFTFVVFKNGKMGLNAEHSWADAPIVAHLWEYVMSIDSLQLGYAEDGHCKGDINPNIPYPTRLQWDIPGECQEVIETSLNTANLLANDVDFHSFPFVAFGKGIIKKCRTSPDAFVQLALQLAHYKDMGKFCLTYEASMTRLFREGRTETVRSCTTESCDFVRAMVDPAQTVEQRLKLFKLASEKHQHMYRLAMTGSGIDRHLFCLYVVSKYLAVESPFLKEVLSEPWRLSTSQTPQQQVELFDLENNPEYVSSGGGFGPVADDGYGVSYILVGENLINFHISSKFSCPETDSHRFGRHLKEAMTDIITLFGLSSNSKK
Experimental: CPT-1 activity was assayed in MCF-7 cells by the following published procedure: MCF-7 cells were plated in DMEM with 10% fetal bovine serum at 10^6 cells in 24-well plates in triplicate. Following overnight incubation at 37° C., the medium was removed and replaced with 700 μl of assay medium consisting of: 50 mM imidazole, 70 mM KCl, 80 mM sucrose, 1 mM EGTA, 2 mM MgCl2, 1 mM DTT, 1 mM KCN, 1 mM ATP, 0.1% fatty acid free bovine serum albumin, 70 μM palmitoyl-CoA, 0.25 μCi [methyl-^14C]L-carnitine, 40 μg digitonin with or without 20 μM malonyl-CoA. After incubation for 6 minutes at 37° C., the reaction was stopped by the addition of 500 μl of ice-cold 4 M perchloric acid. Cells were then harvested and centrifuged at 13,000×g for 5 min. The pellet was washed with 500 μl ice cold 2 mM perchloric acid and centrifuged again. The resulting pellet was resuspended in 800 μl dH2O and extracted with 150 μl of butanol. The butanol phase was counted by liquid scintillation and represents the acylcarnitine derivative.
MCF-7 cells were treated with C75 at 10 or 20 μg/mL for 1 hr before CPT-1 activity was assayed. The assay was performed with the C75 and malonyl-CoA concentrations indicated (“M” indicates malonyl-CoA at 20 uM). Malonyl-CoA treatment alone caused a 46% reduction in CPT-1 activity similar to the previous experiment (see FIG. 2; p=0.02, two-tailed t-test, Prism 3.0). The level of malonyl-CoA inhibition of the CPT-1 activity is consistent with the activity of the liver isoform of CPT-1 in MCF-7 cells. The Ki of malonyl-CoA for the liver isoform of CPT-1 is ˜7 μM while the Ki for the muscle isoform of CPT-1 is 0.07 μM. Thus, MCF-7 cells express predominantly the liver isoform of CPT-1 (consistent with the immunoblot analysis).
as §1

[1] = Respiratory exchange ratio by indirect calorimetry (Oxymax) in mice; format: in vivo
Experimental: In keeping with the C75 effect on both human and murine CPT-1 and fatty acid metabolism, C75 induces a profound and rapid stimulation of fatty acid oxidation in vivo. Mice were maintained in the Oxymax calorimeter (Oxymax Equal Flow System®, Columbus Instruments, Columbus, Ohio). Oxygen consumption and CO2 production was measured in up to four mice simultaneously using the indirect calorimeter. Measurements were recorded every 15 minutes over the entire course of the experiments. The respiratory exchange ratio (RER) was calculated by the Oxymax® software version 5.9. RER is defined as the ratio of CO2 to O2 at any given time irrespective if equilibrium was reached. Mice were maintained on water and mouse chow ad libitum. In the control mice (FIG. 8A), note the diurnal variation of RER indicating feeding and resting cycles of the animals. An RER of 1 is consistent with oxidation of carbohydrates while 0.7 indicates oxidation of fatty acids. […] C75 treatment at 30 mg/kg disrupts the diurnal pattern of the control mice, showing a rapid drop in RER to complete oxidation of fatty acids within about 2 hours. […] Importantly, the rate of decline of RER was similar to that observed for animals deprived of food (data not shown).

FAS, sequence (P49327 whole entry): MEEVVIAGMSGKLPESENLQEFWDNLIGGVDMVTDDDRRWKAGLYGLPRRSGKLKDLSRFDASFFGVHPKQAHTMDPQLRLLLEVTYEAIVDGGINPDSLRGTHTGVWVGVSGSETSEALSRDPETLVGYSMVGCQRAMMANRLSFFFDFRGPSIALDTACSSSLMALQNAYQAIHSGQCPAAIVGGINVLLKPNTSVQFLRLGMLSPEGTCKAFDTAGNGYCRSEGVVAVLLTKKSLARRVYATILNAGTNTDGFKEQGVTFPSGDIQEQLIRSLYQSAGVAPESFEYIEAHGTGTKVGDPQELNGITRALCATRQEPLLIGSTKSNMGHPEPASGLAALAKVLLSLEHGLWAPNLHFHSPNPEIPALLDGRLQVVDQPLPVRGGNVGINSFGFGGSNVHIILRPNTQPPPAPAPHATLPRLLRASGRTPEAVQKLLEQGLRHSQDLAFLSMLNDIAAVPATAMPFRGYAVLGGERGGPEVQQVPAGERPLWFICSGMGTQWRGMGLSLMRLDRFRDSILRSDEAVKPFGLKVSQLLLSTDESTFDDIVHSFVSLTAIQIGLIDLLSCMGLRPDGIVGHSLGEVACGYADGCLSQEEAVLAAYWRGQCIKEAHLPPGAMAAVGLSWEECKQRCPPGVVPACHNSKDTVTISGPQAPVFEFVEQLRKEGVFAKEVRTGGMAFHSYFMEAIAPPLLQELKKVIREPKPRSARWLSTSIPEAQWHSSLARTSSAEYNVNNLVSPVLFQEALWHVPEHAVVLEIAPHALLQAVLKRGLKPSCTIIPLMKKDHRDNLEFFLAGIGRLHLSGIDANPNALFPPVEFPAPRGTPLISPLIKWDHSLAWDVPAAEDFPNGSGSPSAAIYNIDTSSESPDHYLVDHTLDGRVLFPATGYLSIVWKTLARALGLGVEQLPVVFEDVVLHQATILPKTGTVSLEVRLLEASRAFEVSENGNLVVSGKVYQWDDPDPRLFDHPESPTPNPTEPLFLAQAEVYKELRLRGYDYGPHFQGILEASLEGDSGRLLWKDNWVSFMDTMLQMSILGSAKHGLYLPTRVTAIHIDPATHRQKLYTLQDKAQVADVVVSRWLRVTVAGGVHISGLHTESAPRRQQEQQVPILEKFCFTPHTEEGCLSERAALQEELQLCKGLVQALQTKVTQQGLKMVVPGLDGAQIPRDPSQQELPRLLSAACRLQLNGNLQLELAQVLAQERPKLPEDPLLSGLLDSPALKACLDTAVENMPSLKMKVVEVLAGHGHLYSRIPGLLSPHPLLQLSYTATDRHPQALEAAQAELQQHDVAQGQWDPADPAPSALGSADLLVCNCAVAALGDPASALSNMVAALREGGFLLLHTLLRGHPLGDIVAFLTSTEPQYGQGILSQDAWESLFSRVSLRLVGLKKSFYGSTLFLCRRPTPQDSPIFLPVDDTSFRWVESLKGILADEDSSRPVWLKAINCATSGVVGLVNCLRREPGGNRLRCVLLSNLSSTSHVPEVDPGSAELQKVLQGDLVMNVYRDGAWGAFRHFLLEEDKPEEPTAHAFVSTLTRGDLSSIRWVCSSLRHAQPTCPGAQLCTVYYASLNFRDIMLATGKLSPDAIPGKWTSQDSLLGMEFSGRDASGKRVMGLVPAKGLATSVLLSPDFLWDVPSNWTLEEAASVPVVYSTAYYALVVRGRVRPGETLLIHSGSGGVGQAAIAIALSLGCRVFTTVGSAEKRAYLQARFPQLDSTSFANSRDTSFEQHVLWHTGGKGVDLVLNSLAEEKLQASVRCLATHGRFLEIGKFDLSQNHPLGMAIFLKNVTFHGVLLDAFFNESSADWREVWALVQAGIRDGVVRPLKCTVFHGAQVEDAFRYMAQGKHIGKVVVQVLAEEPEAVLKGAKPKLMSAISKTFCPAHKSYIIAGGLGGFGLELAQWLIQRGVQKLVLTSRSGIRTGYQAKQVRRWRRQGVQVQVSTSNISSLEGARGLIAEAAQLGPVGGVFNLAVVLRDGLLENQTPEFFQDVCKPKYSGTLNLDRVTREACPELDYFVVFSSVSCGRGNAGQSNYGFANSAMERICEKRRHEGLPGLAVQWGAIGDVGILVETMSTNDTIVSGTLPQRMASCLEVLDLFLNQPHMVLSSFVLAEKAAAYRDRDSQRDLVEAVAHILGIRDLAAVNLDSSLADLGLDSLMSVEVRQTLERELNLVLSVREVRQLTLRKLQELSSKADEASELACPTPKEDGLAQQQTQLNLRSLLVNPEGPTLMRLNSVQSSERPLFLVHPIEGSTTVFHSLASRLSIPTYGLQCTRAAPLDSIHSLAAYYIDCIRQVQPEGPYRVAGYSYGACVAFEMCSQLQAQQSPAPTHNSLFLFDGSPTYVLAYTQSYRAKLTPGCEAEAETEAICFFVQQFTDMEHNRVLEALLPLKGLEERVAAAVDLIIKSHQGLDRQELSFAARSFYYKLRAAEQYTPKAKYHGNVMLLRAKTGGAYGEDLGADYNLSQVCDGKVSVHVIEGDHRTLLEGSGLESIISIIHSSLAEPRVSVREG

In the case of `C=C1C(=O)OC(CCCCCCCC)C1C(=O)O` (stereo not shown) [Compound C75], the “FAS Inhibition (IC50)” value (FAS) is listed as 55 µg/mL, the “increase in malonyl-CoA” value (MCF-7 cells) is listed as over 5 fold and the “CPT-1 Stimulation (% Control)” value (CPT-1; 20 μg/mL, cells preincubated 2 hours) is listed as 125 % Control. For the same molecule, the “CPT-1 activity, % of control” value (CPT-1; MCF-7, 20 μg/ml 1 hr before assay, FIG. 4) was 166 % of control, the “CPT-1 activity, % of control” value (CPT-1; MCF-7, 20 μg/ml for one hour before assay, no C75 in the assay buffer, FIG. 3) was 158 % of control and the “CPT-1 stimulation after C75 removed from buffer and malonyl-CoA 20 μM added” value (CPT-1; MCF-7, C75 20 μg/ml one hour pretreatment, FIG. 3) was “stimulatory activity is lost”. For the same molecule, the “difference in CPT-1 activity between C75 and C75 plus malonyl-CoA” value (CPT-1; MCF-7, C75 10 or 20 μg/mL 1 hr, malonyl-CoA 20 uM, FIG. 2) was “no statistically significant difference”, the “stimulated CPT-I activity” value (CPT-1; MCF-7 cells in vitro) was 150-160% and the “time for RER drop to oxidation of fatty acids” value ([1]; 30 mg/kg) was at most 2 h. For the same molecule, the “respiratory exchange ratio (RER) after treatment” value ([1]; FIG. 8B) was about 0.7.
